Usually melting point stands for the temperature, or range, at which the solid turns liquid.

We go through 67 molecules from a melting point compilation (Tetko et al.; mined from patent text by program, amines drawn as free bases though some values may be those of a salt).

Where only a bound is given, the exact number is not on record here.

In the case of `O=S(CCCCCOc1ccc(C2=C(c3ccccc3)CCCc3ccccc32)cc1)CCCC(F)(F)C(F)(F)F` (configuration not stated), the melting point was in the range of 114 to 116 °C.
As for `CC(C)c1nc(C(C)(C)C)cc(-c2ccc(F)cc2)c1CO`, the figure is 112 to 113 °C; as for `Oc1ccc(C2=NCCCO2)cc1`, 196 to 198 °C; as for `CC=C(C)C1CCC2C3CC(=O)C4=CC(=O)CCC4(C)C3CCC12C` (configuration not stated), 172 to 178 °C.
As for `O=C(CC(Cc1ccccc1)C(=O)O)c1ccc(Cl)cc1` (racemic), the figure is 137 to 138 °C; as for `CC1CC(=O)NN=C1c1ccc2c(c1)NCCO2` (configuration not stated), 166 to 168 °C.
`OCc1cccc(/C=C/c2ccc3ccc(Cl)cc3n2)c1`: the melting point was determined as 141 °C.
As for `CCc1cc2cc([N+](=O)[O-])ccc2s1`, the figure is 55 °C.
Under `COc1cc2c(cc1O)CCN(Cc1cccc(C)c1)C2` stands 128 to 129 °C; under `O=C1Nc2ccc(-c3cccc(Cl)c3)cc2C12OCCCO2`, 242 to 244 °C.
Under `O=C(Nc1ccccc1-c1nc2cccnc2o1)c1ccccc1` stands 197 to 198 °C.
Regarding `C=C(C)c1ccccc1N1CCN(C(=O)Nc2cc(C)c(C)nc2OC)CC1`, the melting point lay within 139 to 140 °C.
Under `CN1CCN(C)C1=Nc1ccccc1-c1ccccc1` stands 90 to 91 °C; under `Cc1nc[nH]c1CSCCNC(=O)NCCSCc1[nH]cnc1C`, 225 to 228 °C; under `CCCOC12CCC(=O)C3(C)Oc4c(O)ccc5c4C31CCN(C)C2C5` (configuration not stated), 193 to 195 °C.
As for `CCc1n[nH]c(CC)c1Oc1cc(Cl)cc(Cl)c1`, the figure is 114 to 115 °C; as for `CCCNC(=S)n1nc(Oc2ncc(C(F)(F)F)cc2Cl)cc1C`, 51 to 53 °C.
As for `O=C1CC(c2cccc3ccccc23)c2ccc(O)cc2O1` (configuration not stated), the figure is 193 to 196 °C; as for `O=c1[nH]c2ncc(-c3ccc(O)cc3)nc2n1CC1CCCO1` (configuration not stated), 256 to 258 °C.
As for `COc1ccc(-c2cc3nccnc3[nH]2)cc1`, the melting point fell in the range of 244 to 246 °C.
Under `CC(Cn1ccc(-c2ccccc2)n1)C(=O)N(C)C` (configuration not stated) stands 68 to 71 °C; under `CCOC(=O)CCc1c(C)nc(SCc2ccc(OC)cc2)n1C`, 63 °C; under `C=CCOC(=O)CCCS(=O)C1CC(=O)N1CC(=O)NCCCCCCc1ccc(F)cc1` (configuration not stated), 95 to 96 °C.
As for `COCCNc1ncc(-c2cnc3[nH]c(=O)n(CC4CCCCC4)c3n2)cn1`, the figure is greater than 250 °C; as for `CC1(C)OC(=O)N=C1c1ccccc1`, 106 to 108 °C; as for `Cc1cc(Br)cc2c(C(C)C)c[nH]c12`, 170 °C.
Under `Cc1ccccc1OCC1COC(Cn2ccnc2)(c2ccc(Cl)cc2Cl)O1` (configuration not stated) stands 138 °C.
Consider `CCc1cc(O)cc2c3c([nH]c12)C(CC)(CC(=O)OC)OCC3` (configuration not stated), for which the melting point is 153 to 154 °C.
As for `CCC(=O)c1cccc(S(N)(=O)=O)c1`, the figure is 152 to 153 °C; as for `CC(C)(C)OC(=O)NC1CCCCCC=CC2CC2(C(=O)NS(=O)(=O)C2CC2)NC(=O)C2CC(OC(=O)c3cnccn3)CN2C1=O` (configuration not stated), 150 to 152 °C; as for `C=C1CCCN(Cc2ccc(OC)cc2)C1=O`, 145 to 155 °C.
As to `Cc1ccc(CNc2nc(Cl)nc(OCC(F)(F)F)n2)o1`, the melting point was 70 to 72 °C.
Under `Cc1c(C(F)(F)F)noc1N` stands 53 to 54 °C.
Under `CCCOC1=Nc2c(ncn2-c2ccccc2)C2=N[C@@H](Cc3ccccc3)CN12` stands 74 to 80 °C; under `COc1ccc2c(c1)CCC1=C2CCC2(C(C)C)C(=O)CC=C12` (configuration not stated), 112 to 113 °C.
Under `Clc1ccc(-c2[nH]nc(N3CCNCC3)c2-c2ccncc2)cc1` stands 264 to 265 °C; under `COc1ccc(C(=O)Nc2ccc(COc3ccc4c(c3)CCC(CN(C)C)C4)cc2)cc1` (configuration not stated), 155 to 159 °C.
For `O=c1[nH]c2c(c3nc(-c4ccccc4Cl)nn13)CN(Cc1ccccc1)CC2`, the melting point lay in the range of 295 to 296 °C.
Under `CN1CCC(c2cccc3ccc(O)cc23)CC1` stands 144 to 146 °C.
In the case of `NC(=O)NC1CCC(=O)c2ccsc21` (configuration not stated), the melting point lay within 240 to 241 °C.
Under `OCC1(CO)CC=CC1` stands 168 to 170 °C; under `CC(C)C[C@H](NC(=O)CCC(=O)c1ccccc1)C(=O)N[C@@H](C(C)C)[C@@H](O)c1c(-c2ccccc2)c1=O`, 83 to 88 °C.
As for `CN1CCN(c2c(F)cc3c(=O)c(C(=O)O)cn4c3c2N(C)CC4)CC1`, the figure is 266 to 269 °C; as for `CCOC(=O)c1cc(C(Br)Br)cnc1Br`, 88 to 89 °C; as for `OC1Cc2cccc(Br)c2C1` (configuration not stated), 80 °C.
Under `N#Cc1cc(Br)c(I)c(Br)c1` stands 170 to 175 °C.
`Cc1c(O)c(C)c2c(C)cn(C(=O)C(C)(C)C)c2c1C` yielded a melting point of 152 to 153 °C.
Under `CCCCn1cc(C(=O)O)c2ccccc21` stands 124 to 126 °C.
With `COc1cc(OC)c(-c2cccs2)cc1/C=C/C(=O)c1ccc(S(=O)(=O)Nc2ccc(F)cn2)cc1`, the melting point was in the range of 194 to 195 °C.
`COc1ccc(NC(=O)Nc2ccc(Cl)c(Cl)c2)cc1NC(=S)Nc1cccc(C(=O)O)c1` came in with a melting point of 209 to 211 °C.
Under `S=C(NCCCN1CCCC1)NCCCN(Cc1ccc(Cl)c(Cl)c1)c1ccc(Br)cn1` stands 122 to 124 °C; under `Nc1ccc(OCCCOc2ccc(N)cc2[N+](=O)[O-])c([N+](=O)[O-])c1`, 152 to 153 °C; under `O=C1C=NC(c2cccs2)(C(F)(F)F)O1` (configuration not stated), 62 to 65 °C.
As for `Cc1cc(Oc2c(Cl)cc(C(F)(F)F)cc2Cl)nn1C(=S)NCC1CCCO1` (configuration not stated), the figure is 69 to 71 °C.
Under `CC(C)OP(=O)(CNc1cc(Oc2ccc(C(F)(F)F)cc2Cl)ccc1[N+](=O)[O-])OC(C)C` stands 93 to 94 °C; under `CCc1cccc2[nH]c3c(c12)CC(N(C)C)CC3` (configuration not stated), 157 to 161 °C.
With `COc1ccc(CN(CCN(C)CCNC(=C[N+](=O)[O-])NCCCOc2cccc(CN3CCCCC3)c2)c2ccccn2)cc1`, the melting point fell in the range of 102 to 104 °C.
Under `CNC(=S)C1(c2cnc3ccccc3c2)CCCCC1=CC#N` (configuration not stated) stands 108 to 111 °C; under `CCn1c(C)c(C(=O)c2ccccc2C(=O)O)c2ccccc21`, 184 to 185 °C.
`CC(C)CC1(CCCCN2CCc3sccc3C2)C(=O)Nc2ccccc21` (configuration not stated) registered a melting point of 114 to 116 °C.
As for `N#CN=C1NCCN1Cc1cccnc1`, the figure is 126 to 128 °C; as for `Cc1c(S(=O)(=O)C(F)(F)F)cc(-c2ccc(S(C)(=O)=O)cc2)n1-c1ccc(F)cc1`, 162 to 164 °C; as for `CCS(=O)(=O)Nc1cc(-c2ncnc(OC)c2C#N)c(F)cc1C#N`, 187 to 189 °C.
As for `CCCCCCCC(=O)OCc1ccccc1-c1nc(-c2cccc(OCC)c2)n[nH]1`, the figure is 87 to 89 °C; as for `Cn1nc(C#N)nc1NCCCOc1cccc(CN2CCCCC2)c1`, 66 to 67 °C.
As for `CC(C)C(=O)c1c(C(C)(C)C)cc(C=[N+]([O-])C(C)(C)C)cc1C(C)(C)C`, the figure is 197 to 208 °C.
The molecule `O=C1Cc2ccccc2Oc2ccccc2C1` came in with a melting point of 86 °C.
